Measured values from PMC10636063, “Progesterone activation of β1-containing BK channels involves two binding sites” (Nature Communications, 2023).
Values joined by “and” are separate entries in the source; they are usually repeats but may differ in a detail not shown here. Identical values can stand only once.

Experiments:
cbv1+β1Y42V = target: T1, cbv1+β1Y42V (Rattus norvegicus, UniProt P97678, Y42V); test: Channel activity (NPo) in POPE/POPS bilayers, cbv1+β1Y42V; format: biochemical
T1 construct: made in house; host or cells: CHO cells, transient transfection; sucrose-gradient membrane preparation
From the text: BK channel-forming slo1 cDNA (cbv1 isoform; AY330293) was cloned from rat cerebral artery SM cells, and inserted into pcDNA3.1 vector as described. BK β1 cDNA (KCNMB1 product; NP_011452; FJ154955) were isolated from rat cerebral artery SM cells and cloned as described. β4 cDNA (KCNMB4; NP_055320; AY028605) were generously provided by Dr. Ligia Toro. CHO cells were transiently transfected with cbv1 ± β1-, or β4-carrying pcDNA3.1 using X-tremeGENE HP (Sigma-Aldrich). […]
Proteins for electrophysiological recordings in artificial lipid bilayers remained untagged. […] BK channel-mediated ionic current was recorded in planar lipid bilayers consisting of a POPE:POPS 3:1 (w/w) mixture. […]
Patch-clamp and bilayer data were analyzed using Clampfit 10.7 software (Molecular Devices). […] Drug-induced NPo changes were determined by comparing baseline NPo (i.e., NPo with the patch/cell perfused with bath solution) to the NPo from the same patch/cell exposed to the agent under study (DMSO/PROG/oxime) dissolved in bath solution. NPo and mean open time values were automatically calculated using Clampfit 10.7, the latter using a 50% threshold detection event.

[1] = system: de-endothelialized, pressurized MCA segments (C57BL/6 male); test: EtOH-induced constriction of pressurized MCA in vitro; set-up: species or system mouse; conditions: 10 µM PROG, 10-75 mM EtOH
From the text: Eight-12 week-old C57BL/6J and KCNMB1^−/− on C57BL/6 background mice of both sexes were deeply anesthetized with isoflurane via inhalation in a tightly sealed jar. Resistance size MCAs (~100 μm in external diameter) were dissected out of the mouse brains after animal euthanasia with sharp scissors. For de-endothelialized records, the endothelium was removed by passing an air bubble into the vessel lumen for 90 s[30]. This method has been consistently used by our group and validated using endothelium-dependent versus endothelium-independent vasodilators[16],[26]. Arteries were cannulated as previously described by our group[26],[40]. MCAs were cut into 5 to 10 mm-long segments under a microscope (Nikon SMZ645). The segment was cannulated at each end, and the artery exterior was continuously perfused with physiologic sodium saline (PSS) of the following composition (mM): 119 NaCl, 4.7 KCl, 1.2 KH2PO4, 1.6 CaCl2, 1.2 MgSO4, 0.023 EDTA, 11 glucose, 24 NaHCO3, pH=7.4. PSS was continuously bubbled with an O2/CO2/N2 (21/5/74%) gas mixture and maintained at 35–37 °C. The artery external wall diameter was measured using the automatic edge-detection function of lonWizard software (lonOptix) via Sanyo VCB-3512T camera (Sanyo Electric Co.). Arteries were first incubated at an intravascular pressure of 10 mm Hg for 10 min. Then intravascular pressure was increased to 60 mmHg and held steady throughout the experiment to induce myogenic tone development and maintenance[19],[30],[51]. Each artery segment was exposed to PROG, PROG-oxime (in presence and absence of 1 µM paxilline) only once to avoid development of desensitization during repeated applications of PROG-containing solution. To determine arterial viability, arterial contractility was probed with a high KCl solution at the end of each experiment. The high KCl solution was composed of the following composition (mM): 63.7 NaCl, 60 KCl, 1.2 KH2PO4, 1.2 MgSO4, 0.023 EDTA, 11 glucose, 24 NaHCO3, 1.6 CaCl2, pH=7.4. Like PSS, the high-KCl solution was continuously bubbled with O2/CO2/N2 (21/5/74%) gas mixture and maintained at 35–37 °C.

T1 sequence (P97678 whole entry Y42V): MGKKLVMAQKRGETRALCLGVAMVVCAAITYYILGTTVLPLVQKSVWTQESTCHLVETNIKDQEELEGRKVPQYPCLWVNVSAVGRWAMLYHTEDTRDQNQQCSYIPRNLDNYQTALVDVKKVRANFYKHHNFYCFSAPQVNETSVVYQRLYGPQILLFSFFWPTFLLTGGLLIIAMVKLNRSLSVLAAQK
T1 sequence (Q62976 1-1148 isoform Q62976-2 partner): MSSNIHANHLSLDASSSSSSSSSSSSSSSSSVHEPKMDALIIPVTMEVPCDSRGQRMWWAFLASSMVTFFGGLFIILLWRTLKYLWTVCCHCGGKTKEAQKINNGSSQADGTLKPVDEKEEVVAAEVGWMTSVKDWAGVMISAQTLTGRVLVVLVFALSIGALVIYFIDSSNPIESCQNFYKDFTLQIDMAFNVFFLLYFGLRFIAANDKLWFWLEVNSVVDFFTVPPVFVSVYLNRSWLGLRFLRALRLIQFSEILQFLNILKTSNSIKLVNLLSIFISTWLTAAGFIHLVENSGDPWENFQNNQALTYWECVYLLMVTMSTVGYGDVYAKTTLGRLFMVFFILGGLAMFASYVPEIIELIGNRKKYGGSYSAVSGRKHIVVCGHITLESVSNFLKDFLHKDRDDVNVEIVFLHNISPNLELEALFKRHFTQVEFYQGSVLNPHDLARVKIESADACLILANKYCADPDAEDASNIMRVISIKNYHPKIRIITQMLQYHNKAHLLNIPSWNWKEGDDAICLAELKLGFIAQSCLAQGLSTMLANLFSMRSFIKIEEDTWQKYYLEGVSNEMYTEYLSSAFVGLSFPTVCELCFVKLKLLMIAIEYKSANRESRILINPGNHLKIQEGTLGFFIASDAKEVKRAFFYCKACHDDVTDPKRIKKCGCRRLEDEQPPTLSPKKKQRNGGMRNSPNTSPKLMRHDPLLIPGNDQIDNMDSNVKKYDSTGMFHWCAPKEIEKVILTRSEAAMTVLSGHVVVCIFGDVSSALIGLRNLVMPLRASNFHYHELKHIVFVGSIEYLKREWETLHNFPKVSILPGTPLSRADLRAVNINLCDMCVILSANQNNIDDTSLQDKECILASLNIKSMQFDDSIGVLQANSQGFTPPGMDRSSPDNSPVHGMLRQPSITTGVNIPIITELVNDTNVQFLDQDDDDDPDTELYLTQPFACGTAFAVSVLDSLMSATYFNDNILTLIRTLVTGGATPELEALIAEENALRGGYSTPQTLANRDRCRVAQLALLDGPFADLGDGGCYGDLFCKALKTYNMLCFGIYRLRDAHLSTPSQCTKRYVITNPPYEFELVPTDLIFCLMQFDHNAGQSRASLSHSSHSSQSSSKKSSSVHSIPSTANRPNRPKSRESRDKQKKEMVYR

**Q.** How did the “action on channel activity (NPo)” value (cbv1+β1Y42V; 10 µM, vs DMSO) turn out when `CC(=O)[C@H]1CC[C@H]2[C@@H]3CCC4=CC(=O)CC[C@]4(C)[C@H]3CC[C@]12C` [PROG, Progesterone] was run?
**A.** Its value is “significantly activated”.

**Q.** And the “channel activity (NPo) with prog, normalized” value (cbv1+β1Y42V; SFig3A, cbv1+y42v, individual bilayers)?
**A.** Its value is 1.4717 and 1.041 and 1.9292 and 1.306 and 1.182.

**Q.** And the “effect on EtOH-induced vasoconstriction” value [1]?
**A.** The value was “blunted EtOH-induced vasoconstriction at all alcohol concentrations”.
